{"source": "patent US20230026869A1", "about": "“CRYSTAL FORM OF NUCLEOPROTEIN INHIBITOR AND USE THEREOF” (CHIA TAI TIANQING PHARMACEUTICAL GROUP CO., LTD., priority 2019, published 2023)", "key": {"CYP3A4": {"molecular_target": "T1, CYP3A4 (Homo sapiens, UniProt P08684)", "T1 construct": "from tissue; host or cells: human liver microsomes", "T1 sequence (P08684 whole entry)": "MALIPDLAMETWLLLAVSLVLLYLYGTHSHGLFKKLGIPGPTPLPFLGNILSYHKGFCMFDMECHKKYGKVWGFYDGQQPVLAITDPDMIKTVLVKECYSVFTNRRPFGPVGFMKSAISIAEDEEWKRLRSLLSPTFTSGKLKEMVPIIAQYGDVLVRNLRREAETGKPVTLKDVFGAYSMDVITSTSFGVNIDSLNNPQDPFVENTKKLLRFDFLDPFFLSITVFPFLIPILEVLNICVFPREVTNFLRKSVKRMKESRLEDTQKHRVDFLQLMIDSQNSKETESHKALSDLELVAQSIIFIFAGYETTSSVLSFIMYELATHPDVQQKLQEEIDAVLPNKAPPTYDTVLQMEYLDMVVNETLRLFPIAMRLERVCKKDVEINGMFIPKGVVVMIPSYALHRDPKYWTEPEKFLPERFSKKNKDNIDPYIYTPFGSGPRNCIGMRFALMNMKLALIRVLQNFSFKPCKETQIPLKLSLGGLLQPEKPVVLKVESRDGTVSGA", "test": "Inhibition of human liver microsomal cytochrome P450 isoenzyme CYP3A4", "assay_type": "in vitro ADME", "settings": "human liver microsomes", "method": "(§1) Objective: The inhibitory effect of the test compound on the activity of human liver microsomal cytochrome P450 isoenzymes (CYP1A2, CYP2C9, CYP2C19, CYP2D6 and CYP3A4) was determined. […]"}, "CYP2D6": {"molecular_target": "T2, CYP2D6 (Homo sapiens, UniProt P10635)", "T2 construct": "from tissue; host or cells: human liver microsomes", "T2 sequence (P10635 whole entry)": "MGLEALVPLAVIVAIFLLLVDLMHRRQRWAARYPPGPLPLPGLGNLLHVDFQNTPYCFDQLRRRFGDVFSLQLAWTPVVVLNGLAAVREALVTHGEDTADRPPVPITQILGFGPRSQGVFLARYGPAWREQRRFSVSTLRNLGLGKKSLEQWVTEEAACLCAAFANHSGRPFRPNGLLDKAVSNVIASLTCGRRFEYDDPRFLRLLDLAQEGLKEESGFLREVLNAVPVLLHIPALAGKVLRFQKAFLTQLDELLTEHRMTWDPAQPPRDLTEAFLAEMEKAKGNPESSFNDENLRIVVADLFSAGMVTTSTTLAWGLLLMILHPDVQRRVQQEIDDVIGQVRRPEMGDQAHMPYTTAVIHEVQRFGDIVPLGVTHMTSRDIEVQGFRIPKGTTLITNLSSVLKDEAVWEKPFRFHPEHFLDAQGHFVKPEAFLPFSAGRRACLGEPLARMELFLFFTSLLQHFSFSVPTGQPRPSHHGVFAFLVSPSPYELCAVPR", "test": "Inhibition of human liver microsomal cytochrome P450 isoenzyme CYP2D6", "assay_type": "in vitro ADME", "settings": "human liver microsomes", "method": "as §1"}, "[1]": {"test": "Metabolic stability in liver microsomes of SD rats", "assay_type": "in vitro ADME", "settings": "rat", "method": "(§2) Objective: The metabolic stability of the tested compound of formula (I) in liver microsomes of rats, beagle dogs and cynomolgus monkeys was determined. […]"}, "[2]": {"test": "Experiment on cytotoxicity (CellTiter-Glo, 3 days)", "assay_type": "cell-based", "settings": "3 days incubation, read-out: 50% cytotoxic concentration (CC50)", "method": "• 1. The compound was diluted with DMSO (dimethyl sulfoxide) in a 3-fold gradient for 9 concentrations, and added into a 96-well plate in duplicate. The compound concentration was 200-fold of the final test concentration. • 2. The cells were rinsed with PBS (phosphate buffered saline) once, added with 0.25% trypsin and digested for about 2-5 min in a 37° C., 5% CO2 incubator. Then the digestion was terminated with a cell culture medium and the cells were dispersed into single cells by pipetting with a pipettor. • 3. The cell density was counted with a cell counter, and adjusted to the required density with the medium. • 4. The cells were added into a 96-well plate that had been added with the compound. The final concentration of DMSO in each well was 0.5%. Wells containing 0.5% DMSO were used as non-toxic negative controls, and wells containing the cell culture medium were used as 100% cytotoxicity controls. Then the cell plate was incubated in a 37° C., 5% CO2 cell incubator for 3 days. • 5. The chemiluminescence signal (RLU, relative chemiluminescence unit) of each well in the cell plate was detected with the cell viability detection kit CellTiter-Glo using the multi-functional microplate reader Envision, with instructions on the kit followed. • 6. The raw data (RLU) were substituted into the following formula to calculate the cell viability of each well (cell viability %): […]"}, "CYP2C9": {"molecular_target": "T3, CYP2C9 (Homo sapiens, UniProt P11712)", "T3 construct": "from tissue; host or cells: human liver microsomes", "T3 sequence (P11712 whole entry)": "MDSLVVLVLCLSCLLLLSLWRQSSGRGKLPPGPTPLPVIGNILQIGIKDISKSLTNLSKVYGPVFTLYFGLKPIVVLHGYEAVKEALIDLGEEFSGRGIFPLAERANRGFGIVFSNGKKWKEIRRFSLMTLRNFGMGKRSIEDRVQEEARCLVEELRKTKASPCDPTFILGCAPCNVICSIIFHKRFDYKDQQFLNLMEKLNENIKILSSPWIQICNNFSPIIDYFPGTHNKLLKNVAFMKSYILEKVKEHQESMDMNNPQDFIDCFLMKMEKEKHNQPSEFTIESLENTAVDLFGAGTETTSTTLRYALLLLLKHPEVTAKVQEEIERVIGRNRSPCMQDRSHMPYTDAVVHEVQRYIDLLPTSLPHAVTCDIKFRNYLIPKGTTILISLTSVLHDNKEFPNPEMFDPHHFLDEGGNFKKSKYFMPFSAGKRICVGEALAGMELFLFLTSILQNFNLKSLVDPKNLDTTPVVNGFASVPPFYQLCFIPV", "test": "Inhibition of human liver microsomal cytochrome P450 isoenzyme CYP2C9", "assay_type": "in vitro ADME", "settings": "human liver microsomes", "method": "as §1"}, "[3]": {"test": "Metabolic stability in liver microsomes of beagle dogs", "assay_type": "in vitro ADME", "settings": "dog", "method": "as §2"}}}
{"smiles": "CC1(NC(=O)C(=O)c2c(Cl)c(C(=O)Nc3cc(F)c(F)c(F)c3)c3n2CCC3)CCC(CC(=O)O)CC1", "note": "(stereo not shown) [Compound of formula (I)]", "values": [{"measurement": "IC50", "setting": "CYP3A4", "value": "> 50", "unit": "µM"}, {"measurement": "IC50", "setting": "CYP2D6", "value": "> 50", "unit": "µM"}, {"measurement": "microsomal CLint at 1 μM", "setting": "[1]; SD, microsomes", "value": "< 9.6", "unit": "µL/min/mg"}, {"measurement": "CLint scaled at 1 μM", "setting": "[1]; SD rats liver microsomes", "value": "< 17.3", "unit": "mL/min/kg"}, {"measurement": "half-life at 1 μM", "setting": "[1]; SD rats liver microsomes, 1 μM compound, 0.5 mg/mL", "value": "> 2.42", "unit": "h"}, {"measurement": "CC50 at 3 days", "setting": "[2]", "value": "> 50", "unit": "µM"}, {"measurement": "IC50", "setting": "CYP2C9", "value": "> 50", "unit": "µM"}, {"measurement": "microsomal CLint at 1 μM", "setting": "[3]; beagle, microsomes", "value": "< 9.6", "unit": "µL/min/mg"}, {"measurement": "CLint scaled at 1 μM", "setting": "[3]; Beagle dogs liver microsomes", "value": "< 13.8", "unit": "mL/min/kg"}, {"measurement": "half-life at 1 μM", "setting": "[3]; Beagle dogs liver microsomes, 1 μM compound, 0.5 mg/mL", "value": "> 2.42", "unit": "h"}]}
